According to patent US20250032450A1, “[…] INHALABLE FORMULATIONS” (Cybin UK Ltd., priority 2021, published 2025):
Values after ≈ are worked out from the molar mass of the structure shown. Like-named read-outs stand apart in the source and are kept apart here.

Tests used:
[1] = HMDB; cited from earlier work
[2] = N,N-Dimethyltryptamine pH-solubility in 0.5M Britton Robinson buffer; type: physicochemical; settings: aqueous buffer, thermodynamic from solid, read-out: solubility, Real data
Experimental: Prior to adding N,N-dimethyltryptamine, a quantity of NaOH was added to the BR buffer as required to ensure the required pH. The total volume of BR buffer plus required amount of NaOH was 5 ml for each pH tested (pH 4, 5, 6, 7, 8, 9 & 10).

[3] = in water; estimated; cited from earlier work

Row | SMILES | degradation in solution [1] | solubility ([2]; pH 4.05, 25° C.) [mg/mL] | solubility ([2]; pH 4.98, 25° C.) [mg/mL] | solubility ([2]; pH 6.05, 25° C.) [mg/mL] | solubility ([2]; pH 7.08, 25° C.) [mg/mL] | solubility ([2]; pH 8.07, 25° C.) [mg/mL] | solubility ([2]; pH 8.91, 25° C.) [mg/mL] | solubility ([2]; pH 10.01, 25° C.) [mg/mL] | pKa of terminal phosphate oxygen atom (first value) [3] | pKa of terminal phosphate oxygen atom (second value) [3]
1 | CN(C)CCc1c[nH]c2ccccc12 [N,N-Dimethyltryptamine] | degrades relatively quickly in solution | 105 (≈ 556 mM) | 126 (≈ 671 mM) | 92.6 (≈ 492 mM) | 68.6 (≈ 364 mM) | 88.4 (≈ 470 mM) | 17.1 (≈ 90.8 mM) | 1.14 (≈ 6.06 mM) |  | 
2 | CN(C)CCc1c[nH]c2cccc(OP(=O)(O)O)c12 [psilocybin, [3-(2-Dimethylaminoethyl)-1H-indol-4-yl] dihydrogen phosphate] |  |  |  |  |  |  |  |  | 1.3 | 6.5
